According to patent publication US9790202B2, “Anthranilamide derivatives as pesticides” (priority 2010, dated 2017):
Read-outs that look alike come from different tables or passages of the source.

Experiments:
[1] = log P determination by HPLC on reversed-phase columns (C 18), acidic range; type: physicochemical
Method: The log P values reported in the table above and in the Preparation Examples were determined in accordance with EEC Directive 79/831 Annex V.A8 by HPLC (High Performance Liquid Chromatography) on reversed-phase columns (C 18), with the following methods:
The LC-MS determination in the acidic range is effected at pH 2.7 using 0.1% aqueous formic acid and acetonitrile (contains 0.1% formic acid) as eluents, linear gradient from 10% acetonitrile to 95% acetonitrile
The calibration was effected with unbranched alkan-2-ones (having 3 to 16 carbon atoms) with known log P values (log P values determined on the basis of the retention times by linear interpolation between two successive alkanones).

[2] = tested on: caterpillars of the armyworm (Spodoptera frugiperda); experiment: Spodoptera frugiperda test (SPODFR spray treatment); type: in vivo; conditions: Spodoptera frugiperda, foliar, 168 h, read-out: efficacy in % (caterpillars killed)
Method: Spodoptera frugiperda Test (SPODFR Spray Treatment)
(§1) Solvent: 78.0 parts by weight of acetone 1.5 parts by weight of dimethylformamide
(§2) Emulsifier: 0.5 part by weight of alkylaryl polyglycol ether
(§3) To produce an appropriate active ingredient formulation, 1 part by weight of active ingredient is mixed with the stated amounts of solvent and emulsifier, and the concentrate is diluted with emulsifier-containing water to the desired concentration.
Leaf discs of maize (Zea mays) are sprayed with an active ingredient formulation of the desired concentration and, after drying, populated with caterpillars of the armyworm (Spodoptera frugiperda).
After 7 days, the efficacy in % is determined 100% means that all caterpillars have been killed; 0% means that no caterpillars have been killed.

[3] = tested on: larvae of the mustard beetle (Phaedon cochleariae); experiment: Phaedon test (PHAECO spray treatment), Use Example 2; type: in vivo; conditions: foliar, 168 h, read-out: efficacy in % (beetle larvae killed)
Method: Phaedon Test (PHAECO Spray Treatment)
as §1, §2, §3
Leaf discs of Chinese cabbage (Brassica pekinensis) are sprayed with an active ingredient formulation of the desired concentration and, after drying, populated with larvae of the mustard beetle (Phaedon cochleariae).
After 7 days, the efficacy in % is determined 100% means that all beetle larvae have been killed; 0% means that no beetle larvae have been killed.

[4] = reversed-phase C18 HPLC column, pH 2.7, HPLC reversed-phase C 18, pH 2.7, 0.1% aqueous formic acid / acetonitrile, read-out: LOGP (HCOOH)
[5] = 100 g/ha, spray on maize leaf discs, after 7 days
[6] = 100 g/ha, spray on Chinese cabbage leaf discs, after 7 days

Row | chromatographic logP [1, 4] | Structure (SMILES) | chromatographic logP ([1]; pH 2.7, LOGP (HCOOH)) | pest or weed control at 100 g/ha ([2]; in Zea mays) [%] | pest or weed control at 100 g/ha [2, 5] [%] | further results
1 | – | CNC(=O)c1cc(C(C)=O)cc(C)c1NC(=O)c1cc(Cn2nnc(C(F)(F)F)n2)nn1-c1ncccc1Cl [Compound 8] | 2.53 | 100 | – | –
2 | – | CC(=O)c1cc(C)c(NC(=O)c2cc(Cn3nnc(C(F)(F)F)n3)nn2-c2ncccc2Cl)c(C(=O)NC(C)C)c1 [Compound 9] | 2.94 | 100 | – | –
3 | – | CC(=O)c1cc(C)c(NC(=O)c2cc(Cn3nnc(C(F)(F)F)n3)nn2-c2ncccc2Cl)c(C(=O)NC2CC2)c1 [Compound 10] | 2.73 | 100 | – | –
4 | – | CC(=O)c1cc(C)c(NC(=O)c2cc(Cn3nnc(C(F)(F)F)n3)nn2-c2ncccc2Cl)c(C(=O)NC(C)C2CC2)c1 (stereo not drawn) [Compound 11] | 3.23 | 100 | – | pest or weed control at 100 g/ha ([3]; in Brassica rapa): 100%
5 | 3.76 | CC(=O)c1cc(C)c(NC(=O)c2cc(Cn3nnc(C(F)(F)F)n3)nn2-c2ccccc2Cl)c(C(=O)NC(C)(C)C)c1 [Compound 12] | – | – | 100 | –
6 | 3.46 | CC(=O)c1cc(C)c(NC(=O)c2cc(Cn3nnc(C(F)(F)F)n3)nn2-c2ccccc2Cl)c(C(=O)NC(C)C)c1 [Compound 13] | – | – | 100 | pest or weed control at 100 g/ha [3, 6]: 100%
7 | 3.74 | CC(=O)c1cc(C)c(NC(=O)c2cc(Cn3nnc(C(F)(F)F)n3)nn2-c2ccccc2Cl)c(C(=O)NC(C)C2CC2)c1 (stereo not drawn) [Compound 14] | – | – | 100 | –
8 | 3.27 | CCNC(=O)c1cc(C(C)=O)cc(C)c1NC(=O)c1cc(Cn2nnc(C(F)(F)F)n2)nn1-c1ccccc1Cl [Compound 16] | – | – | 100 | –
9 | – | Cc1cc(C(N)=O)cc(C(=O)NC(C)C)c1NC(=O)c1cc(Cn2nnc(C(F)(F)F)n2)nn1-c1ncccc1Cl [Compound 19] | 2.27 | 100 | – | pest or weed control at 100 g/ha ([3]; in Brassica rapa): 100%
10 | – | Cc1cc(C(N)=O)cc(C(=O)NC2CC2)c1NC(=O)c1cc(Cn2nnc(C(F)(F)F)n2)nn1-c1ncccc1Cl [Compound 20] | 2.11 | 100 | – | pest or weed control at 100 g/ha ([3]; in Brassica rapa): 83%
11 | 4.54 | Cc1cc(C(=O)OCC2CC2)cc(C(=O)NC(C)(C)C)c1NC(=O)c1cc(Cn2nnc(C(F)(F)C(F)(F)F)n2)nn1-c1ncccc1Cl [Compound 28] | – | – | 100 | –
12 | 4.62 | Cc1cc(C(=O)OCC2CCC2)cc(C(=O)NC(C)(C)C)c1NC(=O)c1cc(Cn2nnc(C(F)(F)F)n2)nn1-c1ncccc1Cl [Compound 29] | – | – | 100 | –
13 | 3.28 | CNC(=O)c1cc(C(=O)OC)cc(C)c1NC(=O)c1cc(Cn2nnc(C(F)(F)F)n2)nn1-c1ccccc1Cl [Compound 30] | – | – | 100 | –
14 | 4.37 | Cc1cc(C(=O)OC2CCC2)cc(C(=O)NC(C)(C)C)c1NC(=O)c1cc(Cn2nnc(C(F)(F)F)n2)nn1-c1ncccc1Cl [Compound 31] | – | – | – | –
15 | – | CNC(=O)c1cc(-n2ccc(C(F)(F)F)n2)cc(C)c1NC(=O)c1cc(Cn2nnc(C(F)(F)F)n2)nn1-c1ncccc1Cl [Compound 34] | 3.48 | 100 | – | pest or weed control at 100 g/ha ([3]; in Brassica rapa): 100%
16 | 3.86 | CNC(=O)c1cc(-n2ccc(C(F)(F)F)n2)cc(C)c1NC(=O)c1cc(Cn2nnc(C(F)(F)C(F)(F)F)n2)nn1-c1ncccc1Cl [Compound 35] | – | – | 100 | pest or weed control at 100 g/ha [3, 6]: 100%
17 | – | Cc1cc(C2OCCCO2)cc(C(=O)NC(C)(C)C)c1NC(=O)c1cc(Cn2nnc(C(F)(F)F)n2)nn1-c1ncccc1Cl [Compound 38] | 3.37 | 100 | – | –
18 | 4.07 | Cc1cc(C2OCC(C)(C)CO2)cc(C(=O)NC(C)(C)C)c1NC(=O)c1cc(Cn2nnc(C(F)(F)F)n2)nn1-c1ncccc1Cl [Compound 39] | – | – | 100 | –
19 | – | COC(=O)c1cc(C)c(N)c(C(=O)NC(C)(C)C)c1 [Example No. B, methyl 4-amino-3-(tert-butylcarbamoyl)-5-methylbenzoate] | – | – | – | chromatographic logP ([1]; reversed-phase C18 HPLC column, pH 2.7, Preparation Example, HPLC reversed-phase C 18, read-out: log P): 2.48
